Results as given in PubChem BioAssay (NCI).
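Interpolation was linear, between the two tested concentrations surrounding the appropriate level; five concentrations were tested over 48 hours in 96-well plates. TGI marks complete inhibition of growth.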

What was measured:
Assay in all cases: growth of human tumour cells (NCI), 48 h
U251 CNS = tested on: U251 CNS
A549 NSCLC = tested on: A549 NSCLC
IGROV1 ovarian = tested on: IGROV1 ovarian
CCRF-CEM leukemia = tested on: CCRF-CEM leukemia
T-47D breast = tested on: T-47D breast
ACHN renal = tested on: ACHN renal
UACC-257 melanoma = tested on: UACC-257 melanoma
NCI-H226 lung = tested on: NCI-H226 lung
SK-OV-3 ovarian = tested on: SK-OV-3 ovarian
SK-MEL-28 melanoma = tested on: SK-MEL-28 melanoma
NCI-H23 lung = tested on: NCI-H23 lung
MOLT-4 leukemia = tested on: MOLT-4 leukemia
HCT-15 colon = tested on: HCT-15 colon
SF-268 CNS = tested on: SF-268 CNS
UO-31 renal = tested on: UO-31 renal
MDA-MB-231 breast = tested on: MDA-MB-231 breast
MDA-MB-435 = tested on: MDA-MB-435
SN12C renal = tested on: SN12C renal
HL-60(TB) leukemia = tested on: HL-60(TB) leukemia
SNB-75 CNS = tested on: SNB-75 CNS
K-562 leukemia = tested on: K-562 leukemia
HOP-92 NSCLC = tested on: HOP-92 NSCLC
BT-549 breast = tested on: BT-549 breast
DU-145 prostate = tested on: DU-145 prostate
MALME-3M melanoma = tested on: MALME-3M melanoma
SW-620 colon = tested on: SW-620 colon
SK-MEL-5 melanoma = tested on: SK-MEL-5 melanoma
HS 578T breast = tested on: HS 578T breast
LOX IMVI melanoma = tested on: LOX IMVI melanoma
EKVX NSCLC = tested on: EKVX NSCLC
NCI/ADR-RES ovarian = tested on: NCI/ADR-RES ovarian
TK-10 renal = tested on: TK-10 renal
SK-MEL-2 melanoma = tested on: SK-MEL-2 melanoma
NCI-H522 lung = tested on: NCI-H522 lung
HCT-116 colon = tested on: HCT-116 colon
SNB-19 CNS = tested on: SNB-19 CNS
M14 melanoma = tested on: M14 melanoma
OVCAR-3 ovarian = tested on: OVCAR-3 ovarian
OVCAR-5 ovarian = tested on: OVCAR-5 ovarian
COLO 205 colon = tested on: COLO 205 colon
MDA-N = tested on: MDA-N
OVCAR-4 ovarian = tested on: OVCAR-4 ovarian
CAKI-1 renal = tested on: CAKI-1 renal
HT29 colon = tested on: HT29 colon
SF-295 CNS = tested on: SF-295 CNS
OVCAR-8 ovarian = tested on: OVCAR-8 ovarian
KM12 colon = tested on: KM12 colon
PC-3 prostate = tested on: PC-3 prostate
HOP-62 NSCLC = tested on: HOP-62 NSCLC
786-0 renal = tested on: 786-0 renal
RPMI-8226 leukemia = tested on: RPMI-8226 leukemia
UACC-62 melanoma = tested on: UACC-62 melanoma
RXF 393 renal = tested on: RXF 393 renal
NCI-H460 lung = tested on: NCI-H460 lung
HCC-2998 colon = tested on: HCC-2998 colon
SR leukemia = tested on: SR leukemia
SF-539 CNS = tested on: SF-539 CNS
MCF7 breast = tested on: MCF7 breast
A498 renal = tested on: A498 renal

Measured: TGI

Cc1ccccc1N=Nc1c(O)ccc2ccccc12
not listed: NCI-H460 lung | HCC-2998 colon | SR leukemia | SF-539 CNS | MCF7 breast | A498 renal
> 100 µM: all other assays above

O=C1N=C2SC=C(NC(=S)Nc3ccccc3)N2NC12c1ccccc1-c1ccccc12
not listed: U251 CNS | SK-MEL-2 melanoma | OVCAR-3 ovarian | A498 renal
> 10 µM: all other assays above

[N-]=[N+]=Nc1ccccc1-c1ccccc1[N+](=O)[O-]
71.7 µM: UACC-257 melanoma
65.1 µM: MOLT-4 leukemia
92.1 µM: NCI/ADR-RES ovarian
45.4 µM: NCI-H522 lung
99 µM: NCI-H460 lung
not listed: CCRF-CEM leukemia | NCI-H226 lung | HL-60(TB) leukemia | SK-MEL-5 melanoma | COLO 205 colon | HCC-2998 colon | SF-539 CNS
> 100 µM: all other assays above

O=[N+]([O-])C(=C/c1ccccc1)/C(=C\c1ccccc1)[N+](=O)[O-]
31.2 µM: SK-MEL-28 melanoma
29.7 µM: DU-145 prostate
31.7 µM: HCT-116 colon
50 µM: SF-268 CNS
33 µM: NCI-H460 lung
47.1 µM: OVCAR-8 ovarian
29.6 µM: TK-10 renal
36 µM: HCC-2998 colon
31.4 µM: BT-549 breast | HT29 colon
33.1 µM: MDA-N
33.4 µM: IGROV1 ovarian | SNB-19 CNS
34.4 µM: MCF7 breast
40 µM: COLO 205 colon | HOP-62 NSCLC
48.2 µM: T-47D breast | SK-OV-3 ovarian
77.1 µM: HS 578T breast
41.6 µM: M14 melanoma
30.3 µM: MDA-MB-435
> 100 µM: K-562 leukemia
30.2 µM: SK-MEL-5 melanoma
38.1 µM: OVCAR-4 ovarian
7.69 µM: CCRF-CEM leukemia
29 µM: U251 CNS | CAKI-1 renal | KM12 colon
47.3 µM: NCI-H226 lung
42.8 µM: NCI/ADR-RES ovarian
30.7 µM: UACC-62 melanoma
32.1 µM: UACC-257 melanoma
48.4 µM: RPMI-8226 leukemia
36.2 µM: SF-295 CNS
31.1 µM: NCI-H23 lung
39.8 µM: HOP-92 NSCLC
37 µM: SNB-75 CNS
78.8 µM: A549 NSCLC
44.7 µM: PC-3 prostate
28.6 µM: SW-620 colon
49.4 µM: SN12C renal
34 µM: EKVX NSCLC
26.2 µM: MDA-MB-231 breast
12.7 µM: SF-539 CNS
33.5 µM: RXF 393 renal
45.3 µM: OVCAR-3 ovarian
19.5 µM: MOLT-4 leukemia
30.6 µM: ACHN renal
29.1 µM: LOX IMVI melanoma
49.1 µM: SK-MEL-2 melanoma
46.6 µM: OVCAR-5 ovarian
31.3 µM: UO-31 renal

O=C/C(=C1/C=Cc2cc([N+](=O)[O-])ccc2S1)c1ccccc1
not listed: BT-549 breast | SW-620 colon | OVCAR-8 ovarian | KM12 colon | UACC-62 melanoma
> 100 µM: all other assays above

CC(C)=CCCC(C)(OC1OC(CO)C(O)C(O)C1O)C1CCC2(C)C1C(O)CC1C3(C)CCC(O)C(C)(C)C3C(OC3OC(CO)C(O)C(O)C3OC3OC(C)C(O)C(O)C3O)CC12C (stereo not given) (tested in a mixture with another compound)
> 7.5 µM: NCI-H460 lung
not listed: MALME-3M melanoma | RXF 393 renal
> 75 µM: all other assays above

CC(C)OC(=O)c1ccc(NCc2cc(O)ccc2O)cc1
0.638 µM: NCI-H522 lung
10.8 µM: SK-MEL-5 melanoma
5.03 µM: HOP-92 NSCLC
18.6 µM: SNB-75 CNS
15 µM: IGROV1 ovarian
1.62 µM: HL-60(TB) leukemia
3.34 µM: SF-539 CNS
5.2 µM: MALME-3M melanoma
4.66 µM: T-47D breast
30.9 µM: UACC-62 melanoma
15.9 µM: LOX IMVI melanoma | OVCAR-5 ovarian
17.7 µM: SW-620 colon
19.8 µM: HCT-116 colon
13.5 µM: ACHN renal
> 21.9 µM: OVCAR-8 ovarian
4.71 µM: OVCAR-3 ovarian
27.8 µM: SK-MEL-2 melanoma
15.4 µM: DU-145 prostate
31.9 µM: HOP-62 NSCLC
18.7 µM: OVCAR-4 ovarian
> 67.8 µM: A549 NSCLC
2.91 µM: UO-31 renal
18.9 µM: NCI-H226 lung | MCF7 breast
18 µM: NCI-H23 lung
17.1 µM: U251 CNS
29.3 µM: SK-MEL-28 melanoma
14.7 µM: TK-10 renal
12.9 µM: MDA-MB-435
26.2 µM: UACC-257 melanoma
> 29.6 µM: HS 578T breast
7.3 µM: SN12C renal
17.5 µM: EKVX NSCLC
6.98 µM: K-562 leukemia
28.4 µM: SF-268 CNS
28.6 µM: HCC-2998 colon
9.21 µM: HCT-15 colon
10.3 µM: MOLT-4 leukemia | 786-0 renal
5.79 µM: RXF 393 renal
2.81 µM: CAKI-1 renal
9.59 µM: MDA-MB-231 breast
> 68.7 µM: SNB-19 CNS
12.4 µM: BT-549 breast
10.2 µM: SR leukemia
22.4 µM: M14 melanoma
12.5 µM: KM12 colon
13.2 µM: MDA-N
3.99 µM: PC-3 prostate
31.5 µM: HT29 colon
> 100 µM: NCI-H460 lung | CCRF-CEM leukemia | SK-OV-3 ovarian | A498 renal
20.4 µM: SF-295 CNS
9.48 µM: COLO 205 colon
